Tests used:
human GPR139 [1] = target: T1, human GPR139 (Homo sapiens, UniProt Q6DWJ6); experiment: Inhibition rate of the amount of IP1 in GPR139-expressed CHO cells (Test Example 1, IP-ONE HTRF assay); format: cell-based
T1 construct: expressed in transfected cells; host or cells: CHO-TREx (Life Technologies) cells, expression induced with doxycycline
T1 sequence (Q6DWJ6 1-353): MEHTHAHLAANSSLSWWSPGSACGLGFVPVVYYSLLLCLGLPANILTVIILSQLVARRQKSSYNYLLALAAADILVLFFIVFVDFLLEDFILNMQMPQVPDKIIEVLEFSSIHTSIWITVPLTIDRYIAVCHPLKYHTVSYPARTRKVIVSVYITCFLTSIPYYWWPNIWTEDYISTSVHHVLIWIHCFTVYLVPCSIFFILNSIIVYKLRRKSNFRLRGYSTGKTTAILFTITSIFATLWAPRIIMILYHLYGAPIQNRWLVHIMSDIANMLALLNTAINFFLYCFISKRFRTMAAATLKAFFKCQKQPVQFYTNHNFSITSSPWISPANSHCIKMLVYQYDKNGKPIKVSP
Procedure: Measurement of the Inhibition Rate of the Amount of IP1 in 30 μM of the Compound of Example 2 in GPR139-Expressed CHO Cells
Changes in the amount of IP1 in GPR139-expressed CHO cells were measured in order to evaluate the activity of the compound via GPR139. GPR139 is a Gq-coupled receptor which varies intracellular calcium (Liu C et al., Mol Pharmacol. 2015 November; 88(5):911-25), so the amount of IP1, which is a stable metabolite of the second messenger IP3, changes due to activity regulation of GPR139. GPR139 is considered to be […] when expressed recombinantly in mammal cells, so a compound having a GPR139 receptor inverse agonist action is expected to reduce the amount of IP1 production.
The measurement of IP1 was made using an IP-ONE HTFR assay kit (cis-bio) and CHO-TREx (Life Technologies) cells stably transfected with GPR139. The CHO-TREx cells expressed human GPR139 with a tetracycline-inducing element. […]
The compound was diluted with the stimulation buffer, and 4 μL was added to a 384-well white assay plate (Greiner). […] After the fluorescence strengths of two wavelengths were measured by the HTRF settings of Envision (PerkinElmer), the value of Ratio={(Signal 665 nm)/(Signal 615 nm)}×10000 was calculated.

human GPR139 [2] = target: T1, human GPR139; experiment: Inhibition rate of the amount of IP1 in GPR139-expressed CHO cells (inverse agonist assay, Test Example 2); format: cell-based; settings: CHO, relative value, inhibition rate of Example Compound 2 in Test Example 1 defined as 100%
Outline: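 CHO-TREx cells with doxycycline-inducible human GPR139 (2 μg/mL, 17 h) were incubated with compound at 2000 cells/well for 40 min at 37° C. IP1 quantified by HTRF (665/615 nm ratio ×10000); inhibition rate expressed relative to a reference compound defined as […].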

CCn1cc(Cn2ccn(-c3cc(N4CCO[C@H](C)C4)cc(C(F)(F)F)c3F)c2=O)cn1 [Example 2, 1-[(1-Ethyl-1H-pyrazole-4-yl)methyl]-3-{2-fluoro-5-[(2R)-2-methylmorpholine-4-yl]-3-(trifluoromethyl)phenyl}-1,3-dihydro-2H-imidazole-2-one]
GPR139 receptor inverse agonist action (result in words) (human GPR139 [1]): exhibits GPR139 receptor inverse agonist action | inhibition at 30 µM (human GPR139 [2]): 100%

From patent US12630534B2 (TAKEDA PHARMACEUTICAL COMPANY LIMITED, priority 2020, dated 2026)
